Structures are written as SMILES. Where “and” joins values, the source holds several entries; their conditions need not be identical. Equal entries are not always repeated.

The text below walks through data of PMC8092326 (mBio, 2021).

The target of one data set is T1, human ACE2 (Homo sapiens, UniProt Q9BYF1).
T1 construct: purchased Assay Matrix; R&D Systems
Kind of data set: biochemical. The following applies: immobilized recombinant human ACE2; ± one SD; read-out: KD (nM) determined by SPR. Type of data set: binding. Background: SPR reads the build-up and loss of mass on a sensor chip optically.

For data set [1], the target named is T2, RBD-mimic1 peptide-ACE2 interaction (Homo sapiens, UniProt Q9BYF1).
T2 construct: purchased Assay Matrix; R&D Systems (ACE2); Mimotopes, Australia (peptide)
Briefly: SPR competition (ABA injection) between compound and RBD-mimic1 peptide for immobilized ACE2. Format: binding.

In data set [2] the target is human ACE2-VLP spike protein interaction (UniProt P0DTC2+Q9BYF1). Type of data set: binding, SARS-CoV-2.
Another data set deals with T3, SARS-CoV-2 spike protein (Severe acute respiratory syndrome coronavirus 2, UniProt P0DTC2).
T3 construct: made in house; host or cells: HEK 293 cells
Briefly: biochemical. Format: binding.

Data set [3] concerns SARS-CoV-2 infection of Vero-E6 cells. Briefly: Dose-response inhibition of SARS-CoV-2 infection of Vero-E6 cells (24 h, in situ ELISA). Type of data set: cell-based. The settings on record: Severe acute respiratory syndrome coronavirus 2, Vero C1008; 24 h infection, Vero-E6, MOI 0.12; read-out: IC50 (μM) Mean ± SD. (ELISA stands for enzyme-linked immunosorbent assay.)
For data set [4] the test system is unchanged.
The next data set has as its system Vero-E6 cells. The following applies: at 1,000 μM.
A further data set concerns human albumin. The settings on record: cited from earlier work.
A further data set is described as follows: in vitro. The following applies: African green monkey.

T2 sequence (Q9BYF1 18-740 limits assumed): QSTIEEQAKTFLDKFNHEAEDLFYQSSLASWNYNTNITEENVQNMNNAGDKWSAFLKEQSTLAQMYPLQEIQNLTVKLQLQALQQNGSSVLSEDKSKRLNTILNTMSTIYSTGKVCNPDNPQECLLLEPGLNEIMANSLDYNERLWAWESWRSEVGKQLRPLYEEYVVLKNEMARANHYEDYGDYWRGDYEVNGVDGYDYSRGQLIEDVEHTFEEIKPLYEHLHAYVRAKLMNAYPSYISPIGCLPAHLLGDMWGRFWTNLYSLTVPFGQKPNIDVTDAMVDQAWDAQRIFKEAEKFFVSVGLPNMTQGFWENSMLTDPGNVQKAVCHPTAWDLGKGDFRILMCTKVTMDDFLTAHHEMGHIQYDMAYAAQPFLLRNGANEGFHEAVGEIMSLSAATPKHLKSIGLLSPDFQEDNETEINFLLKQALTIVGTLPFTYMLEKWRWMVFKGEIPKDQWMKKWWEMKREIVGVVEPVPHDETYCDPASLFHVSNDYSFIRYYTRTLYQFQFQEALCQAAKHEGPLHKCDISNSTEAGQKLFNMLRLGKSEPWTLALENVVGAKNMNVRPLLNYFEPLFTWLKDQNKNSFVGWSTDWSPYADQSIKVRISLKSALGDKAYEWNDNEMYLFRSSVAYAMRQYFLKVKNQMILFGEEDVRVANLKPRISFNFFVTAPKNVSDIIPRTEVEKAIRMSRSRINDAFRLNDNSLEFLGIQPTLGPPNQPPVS
human ACE2-VLP spike protein interaction, sequence (Q9BYF1 18-740, one chain of several): as the sequence (Q9BYF1 18-740 limits assumed) above
T1 sequence (Q9BYF1 18-805): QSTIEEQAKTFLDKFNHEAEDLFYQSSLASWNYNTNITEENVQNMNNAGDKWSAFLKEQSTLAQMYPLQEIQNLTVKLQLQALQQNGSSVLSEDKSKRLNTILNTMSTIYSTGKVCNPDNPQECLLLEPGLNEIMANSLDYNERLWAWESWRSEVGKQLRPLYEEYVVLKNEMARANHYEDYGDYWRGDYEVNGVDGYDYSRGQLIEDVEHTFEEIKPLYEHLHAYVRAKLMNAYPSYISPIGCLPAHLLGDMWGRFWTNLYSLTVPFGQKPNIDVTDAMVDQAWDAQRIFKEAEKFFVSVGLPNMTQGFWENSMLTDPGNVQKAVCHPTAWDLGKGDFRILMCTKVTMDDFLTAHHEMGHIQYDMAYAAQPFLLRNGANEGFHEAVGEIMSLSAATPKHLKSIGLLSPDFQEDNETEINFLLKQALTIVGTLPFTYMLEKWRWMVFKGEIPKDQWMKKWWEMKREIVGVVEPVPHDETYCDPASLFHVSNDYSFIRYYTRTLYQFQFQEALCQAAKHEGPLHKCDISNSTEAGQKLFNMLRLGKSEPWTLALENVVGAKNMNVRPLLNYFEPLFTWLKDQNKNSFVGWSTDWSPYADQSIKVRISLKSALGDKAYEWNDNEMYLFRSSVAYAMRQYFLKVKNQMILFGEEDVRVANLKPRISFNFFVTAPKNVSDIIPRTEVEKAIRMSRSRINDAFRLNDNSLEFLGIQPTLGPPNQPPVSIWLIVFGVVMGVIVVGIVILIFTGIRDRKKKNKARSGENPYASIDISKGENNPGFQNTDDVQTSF

For the molecule `Cc1cc(-c2ccc(/N=N/c3ccc4c(S(=O)(=O)O)cc(S(=O)(=O)O)c(N)c4c3O)c(C)c2)ccc1/N=N/c1ccc2c(S(=O)(=O)O)cc(S(=O)(=O)O)c(N)c2c1O` [Evans blue], the Kd on human ACE2 was 1.6 nM and 1.63 nM. In data set [1] (1:1 ratio at 1 μM), the “Inhibition of the RBD-mimic1 peptide-ACE2 interaction (in words)” value was “complete inhibition”. Moreover, in [1] (read-out: 1:1 competition between compound vs RBD-mimic1 peptide at 1 μM), the inhibition at 1 µM amounted to 99.8%. For the same molecule, in data set [2], the “1:1 Competition between compound vs CoV2 VLP” value was 98.9% ± 6.43 and the “Blocking (%)” value is 78.2 ± 6.3%. Also, on SARS-CoV-2 spike protein, the “Initial SPR screening for binding to the VLP spike protein” value is listed as “binding”. The IC50 in data set [3] turned out to be 28.1 ± 1.2 µM. In data set [4], the “Cytotoxicity in screening at the highest concentration tested” value is recorded as “no apparent cytotoxicity” and the “Screening result at the highest concentration tested” value is recorded as “active”. For the same molecule, the “Cytotoxicity toward Vero-E6 cells” value with Vero-E6 cells is “no cytotoxicity”. The “Affinity for human albumin” value in the data set on human albumin is given as “low μM range”. The molecule also came in with a CC50 in the data set “in vitro” above 1000 µM.

In general, Kd refers to the concentration at which binding is half-saturated. A word on the IC50: it is the concentration needed to halve the response being measured.
